From patent US11999782B2, “Therapeutic agents for the treatment of diseases associated with undesired cell proliferation” (Fundació Privada Institutció Catalana de Recerca I Estudis …, priority 2009, dated 2024)

How the values were obtained:
[1] = test system: LIF expression in GBM neurospheres; test: LIF mRNA by qRT-PCR in GBM neurospheres; format: cell-based, human; settings: 3 hours; for LIF transcript in neurospheres derived from patients: 100 pM, medium without serum
Protocol: (§1) FIG. 3. TGFβ induces the expression of LIF in PCTC and GBM neurospheres. (A) PCTC cells of the 11 samples of the indicated GEM (GBM1-11) were treated with 100 pM TGFβ1 for 3 hours in medium without serum or left untreated, and the expression levels of LIF were determined by means of qRT-PCR. The g-actin was determined as an internal normalization control. (B) GBM neurosphere cells were treated as in A and the expression levels of LIF were determined by means of qRT-PCR as in A. (C) GBM neurospheres were incubated with 100 pM TGFβ1 and/or 2 μM TβRI inhibitor for 3 hours in medium without serum and the mRNA levels of LIF were determined by means of qRT-PCR as in A. (D) GBM1 neurospheres were incubated with 100 pM TGFβ1, TGFβ2 and TGFβ3 for 3 hours in medium without serum and the mRNA levels of LIF were determined by means of qRT-PCR as in A. (E) The levels of LIF protein secreted were determined by means of ELISA in GBM1 neurospheres after 48 hours of treatment with 100 pM TGFβ1.
The U373MG and A172 cells were a generous gift from J. Rich and D. Bigner and were cultured in DMEM with 10% fetal bovine serum (FBS). The primary culture of tumor cells (PCTC) and the GBM neurospheres were generated as described (Bruna et al., (2007) Cancer Cell 11, 147-160; Gunther et al., (2008) Oncogene. May 1; 27(20):2897-909). Briefly, the samples of tumors were processed in the 30 minutes after the surgical resection. The ground pieces of the samples of human gliomas were digested with 200 U/ml collagenase I (Sigma) and 500 U/ml of DNase I (Sigma) in PBS for 2 hours at 37° C. and with constant vigorous stirring. The suspension of individual cells was filtered through a 70 μm cell filter (BD Falcon) and washed with PBS. Finally, the cells were resuspended and subsequently cultured in DMEM with 10% FBS, for the culture of PCTCs, or in neurosphere medium in the case of the GBM neurospheres. The neurospheres of normal human neuroprogenitors were generated from human embryonic cerebral cortex tissue (12-16 weeks after the conception) collected after voluntary abortions. The samples were processed and cultured as described (Poltavtseva et al. (2002) Brain Res Dev Brain Res 134, 149-154). The neurosphere medium consists of neurobasal medium (Gibco) supplemented with B27 (Gibco), L-glutamine (Gibco), penicillin/streptomycin, and growth factors (20 ng/mL EGF and 20 ng/mL FGF-2 (Peprotech)).
(§2) qRT-PCR was performed using Taqman probes from Applied Biosystems, according to the manufacturer's recommendations. The reactions were carried out in a ABI 7000 sequence detector (Perkin Elmer) and the results were expressed as the fold change calculated by means of the DDCt method relative to the control sample or the first quantified sample. The ribosomal unit of 18S or β-actin were used as internal normalization controls.
It was decided to investigate the molecular mechanisms responsible for the effect of TGFβ on GICs. Gene responses to TGFβ in GBM cells which could be involved in the regulation of the self-renewal of GICs were investigated. In a previous work (Bruna et al., 2007), transcriptome analyses were conducted in the U373MG glioma cell line treated with TGFβ and/or a TβRI inhibitor. LIF was among the 63 gene responses to TGFβ in U373MG which were dependent on the activity of TβRI. […] A panel of PCTCs derived from 11 different human GBMs was treated with TGFβ for 3 hours and the levels of LIF mRNA were determined.

[2] = test system: LIF expression in PCTC cells; test: LIF mRNA by qRT-PCR in PCTCs of human GBM; format: cell-based; settings: PCTCs from 11 human GBMs, 100 pM TGFβ1, 3 hours, medium without serum
Protocol: as §1, with “TGFβ1. […]” for “TGFβ1.”
as §2, with “The ribosomal unit of 18S or β-actin were used as internal normalization controls.” left out

[3] = test system: LIF expression in normal human neuroprogenitors; test: LIF mRNA in neurospheres of normal human neuroprogenitors; format: cell-based; settings: 100 pM, 3 hours, compared with GBM neurospheres
Protocol: FIG. 8. Effect of TGFβ on the capacity of self-renewal of normal human neuroprogenitors. (A) Immunocytochemistry of the indicated markers was performed in human neuroprogenitor neurospheres. (B) Neurospheres of the sample of GBM1 and of human neuroprogenitors were incubated with the indicated members of the 100 pM TGFβ family for 3 hours and the mRNA levels of LIF were determined. (C, D) Neurosphere cells of normal human neuroprogenitors were incubated in the same conditions that have been described above in FIG. 1D in the presence of 100 pM TGFβ1 or 20 ng/ml LIF for 7 days and the number of newly formed neurospheres (C) and the number total of cells (D) were determined.
The U373MG and A172 cells were a generous gift from J. Rich and D. Bigner and were cultured in DMEM with 10% fetal bovine serum (FBS). The primary culture of tumor cells (PCTC) and the GBM neurospheres were generated as described (Bruna et al., (2007) Cancer Cell 11, 147-160; Gunther et al., (2008) Oncogene. May 1; 27(20):2897-909). Briefly, the samples of tumors were processed in the 30 minutes after the surgical resection. The ground pieces of the samples of human gliomas were digested with 200 U/ml collagenase I (Sigma) and 500 U/ml of DNase I (Sigma) in PBS for 2 hours at 37° C. and with constant vigorous stirring. The suspension of individual cells was filtered through a 70 μm cell filter (BD Falcon) and washed with PBS. […]
as §2, with “The ribosomal unit of 18S or β-actin were used as internal normalization controls.” left out
It was decided to assess whether this effect was specific to tumor cells or was also present in normal neuroprogenitor cells. […] First, it was determined if TGFβ induced LIF in normal human neuroprogenitors. […]

Compound	effect on the induction of LIF by TGFβ ([1]; GBM neurospheres, 100 pM TGFβ1 with 2 μM TβRI inhibitor)	levels of LIF mRNA in PCTCs [2]	LIF transcript in neurospheres derived from patients [1]	LIF transcript in neurospheres derived from patients ([1]; listed as TGFβ1)	induction of LIF mRNA in normal human neuroprogenitor neurospheres [3]
NC(=O)c1ccc(-c2nc(-c3ccc4c(c3)OCO4)c(-c3ccccn3)[nH]2)cc1 [TβRI inhibitor, SB431542, reference compound]	blocked				
TGFβ: TGFβ1 (R&D Systems), used at 100 pM according to the figure legends		induced LIF in all the PCTCs assayed	capable of inducing the LIF transcript	capable of inducing LIF	did not induce LIF
